In brackets after ≈: the same amount, converted by molar mass. Activity calls are given as the source filed them. The calls are words filed in the database; no cut-off is given here.
Columns and labels:
Candida albicans [1] = experiment: Antifungal activity against Candida albicans 10231 assessed as inhibition of fungal growth incubated for 48 hrs by CLSI based broth microdilution assay; type: functional
Cryptococcus neoformans [2] = experiment: Antifungal activity against Cryptococcus neoformans 32609 assessed as inhibition of fungal growth incubated for 72 hrs by CLSI based broth microdilution assay; type: functional
Candida parapsilosis [3] = experiment: Antifungal activity against Candida parapsilosis 22019 assessed as inhibition of fungal growth incubated for 48 hrs by CLSI based broth microdilution assay; type: functional; details: Lodderomyces parapsilosis
Pichia kudriavzevii = experiment: Antifungal activity against Candida krusei 4996 assessed as inhibition of fungal growth incubated for 48 hrs by CLSI based broth microdilution assay; type: functional
Candida tropicalis [4] = experiment: Antifungal activity against Candida tropicalis 8915 assessed as inhibition of fungal growth incubated for 48 hrs by CLSI based broth microdilution assay; type: functional
[Candida] auris [5] = Antifungal activity against fluconazole-resistant Candida auris 891 assessed as inhibition of fungal growth incubated for 48 hrs by CLSI based broth microdilution assay; type: functional; details: Candidozyma auris
[Candida] auris [6] = Antifungal activity against fluconazole-resistant Candida auris 918 assessed as inhibition of fungal growth incubated for 48 hrs by CLSI based broth microdilution assay; type: functional; details: Candidozyma auris
Saccharomyces cerevisiae [7] = experiment: Antifungal activity against recombinant Saccharomyces cerevisiae Y2765 overexpressing CauMdr1 assessed as inhibition of fungal growth incubated for 48 hrs by CLSI based broth microdilution assay; type: functional
Saccharomyces cerevisiae [8] = experiment: Antifungal activity against recombinant Saccharomyces cerevisiae Y2766 overexpressing CauCdr1 assessed as inhibition of fungal growth incubated for 48 hrs by CLSI based broth microdilution assay; type: functional
Saccharomyces cerevisiae [9] = experiment: Antifungal activity against recombinant Saccharomyces cerevisiae Y2411 overexpressing ScErg11 assessed as inhibition of fungal growth incubated for 48 hrs by CLSI based broth microdilution assay; type: functional
Saccharomyces cerevisiae [10] = experiment: Antifungal activity against recombinant Saccharomyces cerevisiae Y2300 overexpressing ScErg11 assessed as inhibition of fungal growth incubated for 48 hrs by CLSI based broth microdilution assay; type: functional
Saccharomyces cerevisiae [11] = experiment: Antifungal activity against recombinant Saccharomyces cerevisiae Y2462 overexpressing ScErg11/ScNcp1 assessed as inhibition of fungal growth incubated for 48 hrs by CLSI based broth microdilution assay; type: functional
Saccharomyces cerevisiae [12] = experiment: Antifungal activity against recombinant Saccharomyces cerevisiae Y2459 overexpressing CaErg11/CaCpr assessed as inhibition of fungal growth incubated for 48 hrs by CLSI based broth microdilution assay; type: functional
Saccharomyces cerevisiae [13] = experiment: Antifungal activity against recombinant Saccharomyces cerevisiae Y2374 overexpressing CgErg11 assessed as inhibition of fungal growth incubated for 48 hrs by CLSI based broth microdilution assay; type: functional
Saccharomyces cerevisiae [14] = experiment: Antifungal activity against recombinant Saccharomyces cerevisiae Y2721 overexpressing CpErg11/CpCpr assessed as inhibition of fungal growth incubated for 48 hrs by CLSI based broth microdilution assay; type: functional
Saccharomyces cerevisiae [15] = experiment: Antifungal activity against recombinant Saccharomyces cerevisiae Y2711 overexpressing CnErg11 assessed as inhibition of fungal growth incubated for 48 hrs by CLSI based broth microdilution assay; type: functional
Saccharomyces cerevisiae [16] = experiment: Antifungal activity against recombinant Saccharomyces cerevisiae Y2513 overexpressing ScErg11 Y140H mutant assessed as inhibition of fungal growth incubated for 48 hrs by CLSI based broth microdilution assay; type: functional
Saccharomyces cerevisiae [17] = experiment: Antifungal activity against recombinant Saccharomyces cerevisiae Y2716 overexpressing CpErg11 Y132F mutant/ CpCpr assessed as inhibition of fungal growth incubated for 48 hrs by CLSI based broth microdilution assay; type: functional
Saccharomyces cerevisiae [18] = experiment: Antifungal activity against recombinant Saccharomyces cerevisiae Y2768 overexpressing CauErg11 T132F mutant assessed as inhibition of fungal growth incubated for 48 hrs by CLSI based broth microdilution assay; type: functional
Saccharomyces cerevisiae [19] = experiment: Antifungal activity against recombinant Saccharomyces cerevisiae Y2769 overexpressing CauErg11 K143R mutant assessed as inhibition of fungal growth incubated for 48 hrs by CLSI based broth microdilution assay; type: functional
Candida tropicalis [20] = experiment: Potency index, ratio of fluconazole MIC to test compound MIC for antifungal activity against Candida tropicalis 8915 assessed as inhibition of fungal growth incubated for 48 hrs by CLSI based broth microdilution assay; type: functional
Saccharomyces cerevisiae [21] = experiment: Selectivity index, ratio of MIC for antifungal activity against recombinant Saccharomyces cerevisiae Y525 overexpressing CaMdr1 to MIC for antifungal activity against recombinant Saccharomyces cerevisiae Y2411 overexpressing ScErg11; type: functional
Candida albicans [22] = experiment: Antifungal activity against Candida albicans SC5314 assessed as inhibition of fungal growth at 0.125 ug/ml after 48 hrs by TECAN plate reader analysis relative to control; type: functional
Candida parapsilosis [23] = experiment: Antifungal activity against Candida parapsilosis 22019 assessed as inhibition of fungal growth at 0.125 ug/ml measured up to 48 hrs by TECAN plate reader analysis; type: functional, organism-based; details: dose 0.125 µg/ml
Cryptococcus neoformans [24] = experiment: Antifungal activity against Cryptococcus neoformans 32609 assessed as inhibition of fungal growth at 0.125 ug/ml measured up to 48 hrs by TECAN plate reader analysis; type: functional, organism-based; details: dose 0.125 µg/ml
Nakaseomyces glabratus = experiment: Antifungal activity against Candida glabrata 537 assessed as inhibition of fungal growth at 2 ug/ml measured up to 48 hrs by TECAN plate reader analysis; type: functional, organism-based; details: dose 2.0 µg/ml
Candida albicans [25] = experiment: Antifungal activity against Candida albicans SC5314 assessed as inhibition of hyphae length after 3 hrs by inverted microscopic analysis; type: functional, organism-based; details: dose 0.0625-1 µg/ml
Candida albicans [26] = experiment: Antibiofilm activity against Candida albicans SC5314 assessed as inhibition of biofilm formation at 64 ug/mL incubated for 24 hrs by XTT assay relative to control; type: functional
Candida albicans [27] = experiment: Antibiofilm activity against Candida albicans SC5314 assessed as increase in matured biofilm distruption incubated for 24 hrs by XTT assay; type: functional, organism-based; details: dose 0.25-64 µg/ml
[28] = target: T1, Lanosterol 14-alpha demethylase (Candida albicans (strain SC5314 / ATCC MYA-2876) (Yeast), UniProt P10613); experiment: Inhibition of CYP51 in Candida albicans SC5314 assessed as ergosterol level at 0.0625 ug/ml after 8 hrs by GC-MS analysis (reference value: 86.2 %); set-up: scale not given: the % may be the effect or the level left; details: at 0.0625 µg/mL
T1 sequence (P10613 whole entry): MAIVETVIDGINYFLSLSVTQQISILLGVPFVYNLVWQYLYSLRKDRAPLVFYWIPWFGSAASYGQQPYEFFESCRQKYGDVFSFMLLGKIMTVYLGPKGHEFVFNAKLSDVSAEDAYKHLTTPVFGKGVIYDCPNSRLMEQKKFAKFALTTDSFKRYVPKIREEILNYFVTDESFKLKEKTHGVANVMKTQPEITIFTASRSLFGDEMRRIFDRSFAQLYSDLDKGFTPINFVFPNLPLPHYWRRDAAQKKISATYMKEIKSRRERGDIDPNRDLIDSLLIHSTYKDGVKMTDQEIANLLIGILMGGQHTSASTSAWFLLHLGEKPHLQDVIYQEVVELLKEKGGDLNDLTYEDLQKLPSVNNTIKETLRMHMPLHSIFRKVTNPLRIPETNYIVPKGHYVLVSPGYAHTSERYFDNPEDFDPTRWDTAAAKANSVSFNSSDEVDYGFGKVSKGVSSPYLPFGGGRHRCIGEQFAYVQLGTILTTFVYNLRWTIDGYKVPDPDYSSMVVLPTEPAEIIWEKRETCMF

[29] = target: T1, Lanosterol 14-alpha demethylase; experiment: Inhibition of CYP51 in Candida albicans SC5314 assessed as lanosterol level at 0.0625 ug/ml after 8 hrs by GC-MS analysis (reference value: 5.9 %); set-up: scale not given: the % may be the effect or the level left; details: at 0.0625 µg/mL
[30] = target: T1, Lanosterol 14-alpha demethylase; experiment: Inhibition of CYP51 in Candida albicans SC5314 assessed as eburicol level at 0.0625 ug/ml after 8 hrs by GC-MS analysis relative to control; set-up: scale not given: the % may be the effect or the level left; details: at 0.0625 µg/mL
[31] = target: T1, Lanosterol 14-alpha demethylase; experiment: Inhibition of CYP51 in Candida albicans SC5314 assessed as obtusifoliol level at 0.0625 ug/ml after 8 hrs by GC-MS analysis relative to control; set-up: scale not given: the % may be the effect or the level left; details: at 0.0625 µg/mL
Cell membrane = experiment: Induction of membrane permeabilization in Candida albicans SC5314 assessed as increase in fluorescence at 0.0625 to 0.5 ug/ml incubated for 8 hrs by propidium iodide staining based fluorescence microscopic analysis; details: dose 0.0625-0.5 µg/ml
[32] = Cytotoxicity against HUVEC cells assessed as cell viability at 128 ug/ml incubated for 24 hrs by CCK-8 assay relative to control; type: toxicity, cell-based; details: human, at 128 µg/mL, read-out: Activity

C[C@@H](OCc1ccn(Cc2ccc(Cl)cc2)n1)[C@](O)(Cn1cncn1)c1ccc(F)cc1F
MIC (Candida albicans [1]): ≤ 0.125 µg/mL | MIC (Cryptococcus neoformans [2]): ≤ 0.125 µg/mL | MIC (Candida parapsilosis [3]): 0.25 µg/mL (≈ 0.528 µM) | MIC (Pichia kudriavzevii): 2 µg/mL (≈ 4.22 µM) | MIC (Candida tropicalis [4]): 0.25 µg/mL (≈ 0.528 µM) | MIC ([Candida] auris [5]): 8 µg/mL (≈ 16.9 µM) | MIC ([Candida] auris [6]): 8 µg/mL (≈ 16.9 µM) | MIC (Saccharomyces cerevisiae [7]): 0.063 µg/mL | MIC (Saccharomyces cerevisiae [8]): 2 µg/mL | MIC (Saccharomyces cerevisiae [9]): 8 ng/mL | MIC (Saccharomyces cerevisiae [10]): 0.0313 µg/mL | MIC (Saccharomyces cerevisiae [11]): 0.0313 µg/mL | MIC (Saccharomyces cerevisiae [12]): 8 ng/mL | MIC (Saccharomyces cerevisiae [13]): 8 ng/mL | MIC (Saccharomyces cerevisiae [14]): 0.016 µg/mL | MIC (Saccharomyces cerevisiae [15]): 8 ng/mL | MIC (Saccharomyces cerevisiae [16]): 8 ng/mL | MIC (Saccharomyces cerevisiae [17]): 0.016 µg/mL | MIC (Saccharomyces cerevisiae [18]): 0.0313 µg/mL | MIC (Saccharomyces cerevisiae [19]): 8 ng/mL | Ratio (Candida tropicalis [20]): 256 | Ratio (Saccharomyces cerevisiae [21]): 16 | inhibition at 0.125 µg/mL (Candida albicans [22]): 100% | inhibition (Candida parapsilosis [23]): Active | inhibition (Cryptococcus neoformans [24]): Active | inhibition (Nakaseomyces glabratus): inactive | inhibition (Candida albicans [25]): Dose-Dependent Effect | inhibition at 64 µg/mL (Candida albicans [26]): > 55% | Activity (Candida albicans [27]): Dose-Dependent Effect | Activity [28]: 0% | Activity [29]: > 25% | Activity [30]: ~ 20% | Activity [31]: ~ 20% | Activity (Cell membrane): Active | viability at 24 h, 128 ug/ml [32]: 64.5%
